{
  "source": "patent US20100311674A1",
  "about": "“PHARMACEUTICAL COMPOSITIONS WITH A MECHANISM OF MULTI-TARGET RECEPTOR RETROACTION FOR TREATING DEPRESSION” (Yu-Fen Chi, priority 2007, published 2010)",
  "key": {"[1]": {"system": "unpredictable long-term stimulus model", "test": "Open field activity experiment, unpredictable long-term stimulus model (Experiment 8)", "type": "in vivo, rat", "conditions": "2 mg/kg/d into the stomach, 24 days; within 3 minutes", "text": "7.5.1 Open field activity experiment: The open field activity box (1 m×1 m×0.4 m) is constructed by the light blue plywood and the aluminum alloy frame. The box bottom is separated into 25 grids (20 cm×20 cm for each grid), the circumference is the peripheral grids (16 grids), and others are the central grids (9 grids). The rat is placed in the center of the central grids, and the rat's cross-grid number (the number of crossing into the neighboring gird more than 3 claws) and rat's standing number (two forelimbs leaving the ground for more than 1 cm) are calculated/observed within 3 minutes.\nUnpredictable long-term stimulus model: Health Wistar male rats, secondary, 240˜270 g of body weight, are purchased from Beijing Vital River Experimental Animal Technology Ltd. Co. (The quality certificate number: SOCK (JING) 2002-2003).\nThe above pharmaceuticals are prepared with 0.5% of sodium carboxymethylcellulose (CMC-Na) for feeding into the stomach. Benzylpenicillin sodium for injection is the product of North China Pharmaceutical Huasheng Co. Ltd. (Lot: S0511204), and norepinephrine (NE) and 5-hydrotryptamine (5-HT) standards are the products of Sigma Co. Other reagents are all marketed. […]\n8.6 Statistic calculation: The experimental data are represented as […], and the experimental result is calculated as ANOVA by SPSS 11.5 statistic software."}, "ICR mice": {"system": "ICR mice", "test": "Resetpine-induced mouse body temperature decrease experiment (Experiment 6)", "type": "in vivo", "text": "6.1 Experimental animals: ICR mice, male, 22.0±2 g of body weight, secondary, are provided by the Experimental Animal Science Department of Capital Medical University, Beijing.\n6.2 Experiment pharmaceuticals: The pharmaceutical of Embodiment 3 is provided by Beijing Wonner Biotech. Ltd. Co., Paroxetine (Paxil) is the product of Zhong Mei Tianjin Smith Kline pharmaceuticals Co. Ltd., and Resetpine is the product of Guangdong BangMin Pharmaceutical Co., Ltd.\n6.4 Dose designs: 1. High dose of Embodiment 3 (80 mg/kg/d); 2. middle dose of Embodiment 3 (40 mg/kg/d); and 3. low dose of Embodiment 3 (20 mg/kg/d).\n6.5.1 Group division and administration of drug: The mice are grouped randomly, and 10 mice are in each group. 1. High dose of Embodiment 3 (80 mg/kg, P.O., administered for 7 days); 2. middle dose of Embodiment 3 (40 mg/kg, P.O., administered for 7 days); 3. low dose of Embodiment 3 (20 mg/kg, P.O., administered for 7 days); 4.\n6.5.2 Experimental method: After 1 hour of the last administration of drug on the eighth day, the mouse's anal temperature is determined. […] After 4 hours of injecting Resetpine, the mouse's anal temperature is determined once again. […]\n6.5.3 Statistic calculation: The experimental data are represented as X±SD, and the experimental result is calculated as ANOVA by SPSS 11.5 statistic software."}},
  "data": [
    {"smiles": "Fc1ccc([C@@H]2CCNC[C@H]2COc2ccc3c(c2)OCO3)cc1", "note": "[Paroxetine]", "values": [
      {"measurement": "Horizontal movement (cross-grid number)", "setting": "[1]", "value": "61.85 ± 21.68"},
      {"measurement": "Vertical movement (standing number)", "setting": "[1]", "value": "14.69 ± 4.2"},
      {"measurement": "Decreased temperature", "setting": "ICR mice; 3 mg/kg P.O. 7 days, 4 h after Resetpine 2 mg/kg i.p.", "value": "2.38 ± 0.69", "unit": "°C"},
      {"measurement": "Effect on reduced body temperature induced by Resetpine (in words)", "setting": "ICR mice; high, middle and low doses of Embodiment 3, Paroxetine", "value": "decrease the reduced body temperature induced by Resetpine"}
    ]}
  ]
}
